What follows are compounds tested on DBTRG cells (assay: Soft agar anchorage independent assay). Conditions: 504 h; DBTRG colonies scored 3 weeks after plating; range over the listed examples, given with mixed units nM and μM.
Format: cell-based
Experimental: DBTRG cells were seeded into a 24-well format in the presence of […] carrier alone or compound (0.6% DMSO (v/v)). Each well is composed of two agar layers: the bottom layer consists of 0.6% Agar while the top has 0.35% Agar plus cells and compound. Cells (2500 per well) were incubated with […] dilution compound the day of the plating and the colonies were scored 3 weeks later after o/n staining with MTT solution. Imaging and counting of the colonies was done with the GelCount™ instrument (Oxford Optronix, UK). For IC50 determination the data were expressed as % of control, values were calculated using XLFit version 4.2, with a four parameters sigmoid 5 function (XLFit model 205).

Compound	IC50
COc1cc2c(cc1F)n(C)c(=O)n2C[C@H]1CC[C@H](C(=O)Nc2ccncc2)CC1 [Example 1, Trans-4-(5-Fluoro-6-Methoxy-3-methyl-2-oxo-2,3-dihydro-benzoimidazol-1-ylmethyl)-cyclohexanecarboxylic acid pyridine-4-ylamide]	32 to 2900 nM
C#Cc1ccc2c(c1)n(C[C@H]1CC[C@H](C(=O)N3CCN(C(C)=O)CC3)CC1)c(=O)n2C [Example 14, 3-[trans-4-(4-Acetyl-piperazine-1-carbonyl)-cyclohexylmethyl]-5-ethynyl-1-methyl-1,3-dihydro-benzoimidazol-2-one]	32 to 2900 nM

The compounds below were run on Wnt/β-catenin pathway (assay: Wnt reporter assay (TCF-Luciferase, Firefly) in DBTRG-05MG cells). Conditions: Homo sapiens, TCF-Luciferase (Firefly) read out, 24 hours after compound addition, range given with mixed units nM and μM, read-out: IC50 value in the reporter assay.
Format: cell-based
Experimental: Three copies of a 4×TCF responsive elements were cloned into the pcDNA3.1/Zeo(+) vector (Invitrogen) after deletion of the constitutive CMV promoter and the insertion of the Firefly Luciferase from Promega (phFL-TK) to measure the activity of the Wnt/β-catenin pathway. The resulting plasmid was sequenced for quality control.
Cells were grown in 20 μg/ml Zeocin and 20 μg/ml Zeocin plus 30 μg/ml Hygromicin respectively. The cells were plated at a density of 6500 cells/well in poly-D-lysine pre-treated 96 well-plates.
36 hours after plating cells were incubated with 8-points dilutions compound (0.6% DMSO (v/v)). Each compound was tested in triplicate in single plate. Luciferase detection was done with Dual-Luciferase Reporter Assay System (Promega). 24 hours after compound addition, media was removed and 30 μl of 1× lysis buffer was added to each well for 30 minutes. To each well 45 μl of Dual-Glo Luciferase reagent (Promega) were added and after 1 second delay Luciferase was detected for 1 second using Mithras LB940 instrument. After Firefly luciferase quantification 45 μl of Dual Stop & Glo reagent (Promega) were added to each well and […] Renilla was detected using the same parameters described before.
Data were expressed as % of control for Firefly and Renilla luciferase independently; values were calculated using XLFit version 4.2, with a four parameters sigmoid function (XLFit model 205).

Compound	IC50
COc1cc2c(cc1F)n(C)c(=O)n2C[C@H]1CC[C@H](C(=O)Nc2ccncc2)CC1 [Example 1, Trans-4-(5-Fluoro-6-Methoxy-3-methyl-2-oxo-2,3-dihydro-benzoimidazol-1-ylmethyl)-cyclohexanecarboxylic acid pyridine-4-ylamide]	35 to 23000 nM
C#Cc1ccc2c(c1)n(C[C@H]1CC[C@H](C(=O)N3CCN(C(C)=O)CC3)CC1)c(=O)n2C [Example 14, 3-[trans-4-(4-Acetyl-piperazine-1-carbonyl)-cyclohexylmethyl]-5-ethynyl-1-methyl-1,3-dihydro-benzoimidazol-2-one]	35 to 23000 nM
Cn1c(=O)n(C[C@H]2CC[C@H](c3nnc(-c4cccnc4)o3)CC2)c2cc(C#N)ccc21 [Example 124]	35 to 23000 nM
COCCNc1ccc2c(n1)n(C[C@H]1CC[C@H](C(=O)Nc3ccncc3)CC1)c(=O)n2C [Example 125]	35 to 23000 nM
Cn1c(=O)n(C[C@H]2CC[C@H](C(=O)Nc3ccncc3)CC2)c2nc(NCc3cccnc3)ccc21 [Example 126]	35 to 23000 nM
Cn1c(=O)n(C[C@H]2CC[C@H](C(=O)Nc3ccncc3)CC2)c2nc(NCc3ccco3)ccc21 [Example 127]	35 to 23000 nM
COc1ccc2c(c1)n(C[C@H]1CC[C@H](c3nnc(-c4cnc(C)cn4)o3)CC1)c(=O)n2C [Example 128]	35 to 23000 nM
COCCOCCOc1ccc2c(c1)n(C[C@H]1CC[C@H](C(=O)Nc3ccncc3)CC1)c(=O)n2C [Example 129]	35 to 23000 nM
COCCOc1ccc2c(c1)n(C[C@H]1CC[C@H](C(=O)N3CC=C(c4cnn(C)c4)CC3)CC1)c(=O)n2C [Example 130]	35 to 23000 nM
COc1ccc2c(c1)n(C[C@H]1CC[C@H](c3nnc(-c4cc(C)on4)o3)CC1)c(=O)n2C [Example 131]	35 to 23000 nM
COc1ccc2c(c1)n(C[C@H]1CC[C@H](C(=O)N3CCN(c4ccn(C)n4)CC3)CC1)c(=O)n2C [Example 132]	35 to 23000 nM
COc1ccc2c(c1)n(C[C@H]1CC[C@H](C(=O)Nc3ccn(C)n3)CC1)c(=O)n2C [Example 133]	35 to 23000 nM
Cn1ccc(N2CCN(C(=O)[C@H]3CC[C@H](Cn4c(=O)n(C)c5ccc(=O)[nH]c54)CC3)CC2)n1 [Example 134]	35 to 23000 nM
Cn1cc(C2=CCN(C(=O)[C@H]3CC[C@H](Cn4c(=O)n(C)c5ccc(=O)[nH]c54)CC3)CC2)cn1 [Example 135]	35 to 23000 nM
Cn1c(=O)n(C[C@H]2CC[C@H](C(=O)Nc3ccncc3)CC2)c2cc(OCCCC#N)ccc21 [Example 136]	35 to 23000 nM
Cn1c(=O)n(C[C@H]2CC[C@H](C(=O)Nc3ccncc3)CC2)c2cc(OCCF)ccc21 [Example 137]	35 to 23000 nM
Cn1c(=O)n(C[C@H]2CC[C@H](C(=O)Nc3ccncc3)CC2)c2cc(OCCC=C(F)F)ccc21 [Example 138]	35 to 23000 nM
Cn1c(=O)n(C[C@H]2CC[C@H](C(=O)Nc3ccncc3)CC2)c2[nH]c(=O)ccc21 [Example 139]	35 to 23000 nM
COc1ccc2c(c1)n(C[C@H]1CC[C@H](C(=O)N3CCN(c4cnn(C)c4)CC3)CC1)c(=O)n2C [Example 141]	35 to 23000 nM
Cn1c(=O)n(C[C@H]2CC[C@H](C(=O)Nc3ccncc3)CC2)c2ncccc21 [Example 142]	35 to 23000 nM

Compound	IC50
COc1cc2c(cc1F)n(C)c(=O)n2C[C@H]1CC[C@H](C(=O)N2CC=C(c3cnn(C)c3)CC2)CC1 [Example 143]	35 to 23000 nM
COc1ccc2c(c1)n(C[C@H]1CC[C@H](C(=O)N3CCN(c4cc(C)no4)CC3)CC1)c(=O)n2C [Example 144]	35 to 23000 nM
COc1ccc2c(c1)n(C[C@H]1CC[C@H](c3nnc(C4CCOCC4)o3)CC1)c(=O)n2C [Example 145]	35 to 23000 nM
COCCOc1ccc2c(c1)n(C[C@H]1CC[C@H](c3nnc(-c4cccnc4)o3)CC1)c(=O)n2C [Example 146]	35 to 23000 nM
COc1ccc2c(c1)n(C[C@H]1CC[C@H](c3nnc(-c4c(C)nn(C)c4C)o3)CC1)c(=O)n2C [Example 148]	35 to 23000 nM
COc1ccc2c(c1)n(C[C@H]1CC[C@H](c3nnc(-c4cc(C)nn4C)o3)CC1)c(=O)n2C [Example 149]	35 to 23000 nM
COCCOc1ccc2c(n1)n(C[C@H]1CC[C@H](C(=O)Nc3ccncc3)CC1)c(=O)n2C [Example 150]	35 to 23000 nM
Cn1c(=O)n(C[C@H]2CC[C@H](C(=O)Nc3ccncc3)CC2)c2cc(OCc3ccncc3)ccc21 [Example 151]	35 to 23000 nM
Cn1cc(C2=CCN(C(=O)[C@H]3CC[C@H](Cn4c(=O)n(C)c5ccc(C#N)cc54)CC3)CC2)cn1 [Example 154]	35 to 23000 nM
Cn1c(=O)n(C[C@H]2CC[C@H](C(=O)N3CCN(c4cnccn4)CC3)CC2)c2cc(C#N)ccc21 [Example 155]	35 to 23000 nM
Cn1c(=O)n(C[C@H]2CC[C@H](C(=O)Nc3ccncc3)CC2)c2nc(OCc3ccccn3)ccc21 [Example 156]	35 to 23000 nM
COCCOc1ccc2c(c1)n(C[C@H]1CC[C@H](C(=O)N3CCN(c4ccncc4)CC3)CC1)c(=O)n2C [Example 157]	35 to 23000 nM
Cn1c(=O)n(C[C@H]2CC[C@H](C(=O)Nc3ccncc3)CC2)c2nc(OCCN3CCOCC3)ccc21 [Example 158]	35 to 23000 nM
COc1cc2c(cc1F)n(C)c(=O)n2C[C@H]1CC[C@H](C(=O)Nc2ccncn2)CC1 [Example 159]	35 to 23000 nM
COc1cc2c(cc1F)n(C)c(=O)n2C[C@H]1CC[C@H](C(=O)N2CCOCC2)CC1 [Example 160]	35 to 23000 nM
Cn1cc(-c2nnc([C@H]3CC[C@H](Cn4c(=O)n(C)c5ccc(C#N)cc54)CC3)o2)cn1 [Example 162]	35 to 23000 nM
COCCOc1ccc2c(c1)n(C[C@H]1CC[C@H](c3nnc(-c4cccnn4)o3)CC1)c(=O)n2C [Example 163]	35 to 23000 nM
COc1ccc2c(c1)n(C[C@H]1CC[C@H](c3nnc(-c4ccnnc4)o3)CC1)c(=O)n2C [Example 164]	35 to 23000 nM
Cn1c(=O)n(C[C@H]2CC[C@H](C(=O)Nc3ccncc3)CC2)c2cc(OC(F)F)ccc21 [Example 165]	35 to 23000 nM
Cn1cc(C2=CCN(C(=O)[C@H]3CC[C@H](Cn4c(=O)n(C)c5ccc(OC(F)F)cc54)CC3)CC2)cn1 [Example 166]	35 to 23000 nM

Compound	IC50
Cn1c(=O)n(C[C@H]2CC[C@H](C(=O)Nc3ccncc3)CC2)c2nc(OCC#N)ccc21 [Example 167]	35 to 23000 nM
Cn1c(=O)n(C[C@H]2CC[C@H](C(=O)Nc3ccncc3)CC2)c2nc(OCC3CCCCO3)ccc21 (stereo partly drawn) [Example 168]	35 to 23000 nM
COc1cc2c(cc1F)n(C)c(=O)n2C[C@H]1CC[C@H](C(=O)Nc2ccnnc2)CC1 [Example 169]	35 to 23000 nM
Cn1c(=O)n(C[C@H]2CC[C@H](C(=O)Nc3ccncc3)CC2)c2nc(C3CC3)ccc21 [Example 170]	35 to 23000 nM
Cn1c(=O)n(C[C@H]2CC[C@H](C(=O)Nc3ccncc3)CC2)c2nc(OCC(F)(F)F)ccc21 [Example 171]	35 to 23000 nM
COc1ccc2c(c1)n(C[C@H]1CC[C@H](c3noc(-c4cccnc4)n3)CC1)c(=O)n2C [Example 172]	35 to 23000 nM
COCCOc1ccc2c(n1)n(C[C@H]1CC[C@H](C(=O)Nc3ccnnc3)CC1)c(=O)n2C [Example 173]	35 to 23000 nM
COCCOc1ccc2c(n1)n(C[C@H]1CC[C@H](C(=O)N3CCN(c4cnn(C)c4)CC3)CC1)c(=O)n2C [Example 174]	35 to 23000 nM
COc1cc2c(cc1F)n(C)c(=O)n2C[C@H]1CC[C@H](c2nnc(-c3cccnc3)o2)CC1 [Example 175]	35 to 23000 nM
COCCOc1cc2c(cc1F)n(C)c(=O)n2C[C@H]1CC[C@H](C(=O)Nc2ccnnc2)CC1 [Example 176]	35 to 23000 nM
COCCOc1cc2c(cc1F)n(C)c(=O)n2C[C@H]1CC[C@H](C(=O)N2CCOCC2)CC1 [Example 177]	35 to 23000 nM
COc1cc2c(cc1F)n(C)c(=O)n2C[C@H]1CC[C@H](C(=O)N2CCN(c3ncccn3)CC2)CC1 [Example 178]	35 to 23000 nM
COc1cc2c(cc1F)n(C)c(=O)n2C[C@H]1CC[C@H](C(=O)N2C[C@@H](C)O[C@@H](C)C2)CC1 [Example 179]	35 to 23000 nM
COCCOc1ccc2c(n1)n(C[C@H]1CC[C@H](c3nnc(-c4cnn(C)c4)o3)CC1)c(=O)n2C [Example 180]	35 to 23000 nM
COCCOc1ccc2c(n1)n(C[C@H]1CC[C@H](c3nnc(-c4cccnc4)o3)CC1)c(=O)n2C [Example 181]	35 to 23000 nM
COc1cc2c(cc1F)n(C)c(=O)n2C[C@H]1CC[C@H](C(=O)N2CCN(c3cnn(C)c3)CC2)CC1 [Example 183]	35 to 23000 nM
COc1ccc2c(c1)n(C[C@H]1CC[C@H](C(=O)Nc3nc4ccccc4s3)CC1)c(=O)n2C [Example 187]	35 to 23000 nM
COc1ccc2c(c1)n(C[C@H]1CC[C@H](C(=O)Nc3cccc4ncccc34)CC1)c(=O)n2C [Example 188]	35 to 23000 nM
